Earlier results on seven compounds are cited in patent US20230241042A1, “USE OF PENEHYCLIDINE IN TREATMENT OR PREVENTION OF VISION-IMPAIRING EYE DISEASES” (GRAND LIFE SCIENCES GROUP (WUHAN) CO., LTD., priority 2020, published 2023).

The subject of one series is experimental myopia. The conditions noted are these: topical eye drops or oral administration.
The test system of series [1] is FDM. The conditions noted are these: daily subconjunctival injection.
Series [2] deals with FDM. To be noted: in vivo.
Series [3] concerns chick modeled eyes with visual form deprivation myopia (FDM). To be noted: day 8, 0.01% by mass injected into the vitreous cavity.

Consider `OC(CCN1CCCCC1)(c1ccccc1)C1CCCCC1` (stereo not shown) [trihexyphenidyl], for which the “prevention of the progression of experimental myopia” value in the series with experimental myopia is on record as “not effective in preventing the progression of experimental myopia”. `C[N+]1(C)CCC(OC(=O)C(c2ccccc2)c2ccccc2)CC1.[I-]` [4-DAMP]: the “inhibition of the occurrence of FDM” value in the series with FDM [1] was “ineffective”. As to `C[C@@H]1OC(=O)[C@H]2C[C@H]3CCCC[C@@H]3[C@@H](/C=C/[C@H]3CCC[C@H](C)N3C)[C@@H]12` [Himbacine], in the series on FDM [2], the “prevention of FDM and retinal damage” value is recorded as “certain effect in preventing FDM without retinal damage”. For the compound `COc1ccccc1CNCCCCCCNCCCCCCCCNCCCCCCNCc1ccccc1OC` [methoctramine], in the series with FDM [1], the “inhibition of the occurrence of FDM” value is listed as “ineffective”.

Regarding `CN1[C@@H]2CC[C@H]1C[C@@H](OC(=O)C(CO)c1ccccc1)C2` (stereo partly shown) [atropine], in the series on FDM [2], the “prevention of FDM and retinal damage” value is “certain effect in preventing FDM without retinal damage”. Moreover, in series [3], the induced myopia is listed as −2.8 D and the ocular axis extension was 0.21 mm. Consider `CC[N+](C)(CC)CCOC(=O)C(O)(c1ccccc1)C1CCCCC1` (stereo not shown) [Oxypheneonium, Oxyphenonium], for which, in the series with FDM [2], the “prevention of FDM and retinal damage” value is reported as “certain effect in preventing FDM without retinal damage”. Regarding `CN1CCN(CC(=O)N2c3ccccc3C(=O)Nc3cccnc32)CC1` [pirenzepine], in the series on FDM [2], the “prevention of FDM and retinal damage” value was “certain effect in preventing FDM without retinal damage”. In addition, in the series with FDM [1], the “inhibition of the occurrence of FDM” value is given as “could inhibit the occurrence of FDM”.
